Reference: ChEMBL document CHEMBL1132434, “Antitumor benzothiazoles. 8. Synthesis, metabolic formation, and biological properties of the C- and N-oxidation products of antitumor 2-(4-aminophenyl)benzothiazoles” (J Med Chem, 1999)

Experiments:
[1] = system: 786-0; test: Growth inhibition of the 786-O Renal cancer cell line for 2-day in vitro assay.; type: functional; conditions: Homo sapiens, 786-0, 48 h
[2] = system: A498; test: Growth inhibition of the A498 Renal cancer cell line for 2-day in vitro assay.; type: functional; conditions: Homo sapiens, A498, 48 h
[3] = system: A549; test: Growth inhibition of the A549/ATCC non-small cell lung cancer cell line for 2-day in vitro assay.; type: functional; conditions: Homo sapiens, A549, 48 h
[4] = system: ACHN; test: Growth inhibition of the ACHN Renal cancer cell line for 2-day in vitro assay.; type: functional; conditions: Homo sapiens, 48 h
[5] = system: CCRF-CEM; test: Growth inhibition of the CCRF-CEM leukemia cell line for 2-day in vitro assay.; type: functional; conditions: Homo sapiens, 48 h
[6] = system: COLO 205; test: Growth inhibition of the COLO-205 colon cancer cell line for 2-day in vitro assay.; type: functional; conditions: Homo sapiens, COLO 205, 48 h
[7] = system: DU-145; test: Growth inhibition of the DU-145 Prostate cancer cell line for 2-day in vitro assay.; type: functional; conditions: Homo sapiens, DU-145, 48 h
[8] = system: EKVX; test: Growth inhibition of the EKVX non-small cell lung cancer cell line for 2-day in vitro assay.; type: functional; conditions: Homo sapiens, 48 h
[9] = system: HCT-15; test: Growth inhibition of the HCT-15 colon cancer cell line for 2-day in vitro assay.; type: functional; conditions: Homo sapiens, HCT-15, 48 h
[10] = system: HOP-62; test: Growth inhibition of the HOP-62 non-small cell lung cancer cell line for 2-day in vitro assay.; type: functional; conditions: Homo sapiens, HOP-62, 48 h
[11] = system: HCT-116; test: Growth inhibition of the HCT116 colon cancer cell line for 2-day in vitro assay.; type: functional; conditions: Homo sapiens, HCT-116, 48 h
[12] = system: HCC 2998; test: Growth inhibition of the HCC2998 colon cancer cell line for 2-day in vitro assay.; type: functional; conditions: Homo sapiens, HCC 2998, 48 h
[13] = system: HOP-92; test: Growth inhibition of the HOP-92 non-small cell lung cancer cell line for 2-day in vitro assay.; type: functional; conditions: Homo sapiens, HOP-92, 48 h
[14] = system: Hs-578T; test: Growth inhibition of the Hs 578.T Breast cancer cell line for 2-day in vitro assay.; type: functional; conditions: Homo sapiens, 48 h
[15] = system: K562; test: Growth inhibition of the K-562 leukemia cell line for 2-day in vitro assay.; type: functional; conditions: Homo sapiens, K562, 48 h
[16] = system: KM12; test: Growth inhibition of the KM12 colon cancer cell line for 2-day in vitro assay.; type: functional; conditions: Homo sapiens, KM12, 48 h
[17] = system: M14; test: Growth inhibition of the M14 Melanoma cancer cell line for 2-day in vitro assay.; type: functional; conditions: Homo sapiens, M14, 48 h
[18] = system: LOX IMVI; test: Growth inhibition of the LOX IMVI Melanoma cancer cell line for 2-day in vitro assay.; type: functional; conditions: Homo sapiens, 48 h
[19] = system: MDA-MB-435; test: Growth inhibition of the […] Breast cancer cell line for 2-day in vitro assay.; type: functional; conditions: Homo sapiens, MDA-MB-435, 48 h
[20] = system: MCF7; test: In vitro cytotoxicity against MCF-7 human mammary carcinoma cells; type: functional, cell-based
[21] = system: Malme-3M; test: Growth inhibition of the MALME-3M Melanoma cancer cell line for 2-day in vitro assay.; type: functional; conditions: Homo sapiens, 48 h
[22] = system: OVCAR-3; test: Growth inhibition of the OVCAR-3 Ovarian cancer cell line for 2-day in vitro assay.; type: functional; conditions: Homo sapiens, OVCAR-3, 48 h
[23] = system: NCI-H522; test: Growth inhibition of the NCI-H522 non-small cell lung cancer cell line for 2-day in vitro assay.; type: functional; conditions: Homo sapiens, NCI-H522, 48 h
[24] = system: NCI-H226; test: Growth inhibition of the NCI-H226 non-small cell lung cancer cell line for 2-day in vitro assay.; type: functional; conditions: Homo sapiens, NCI-H226, 48 h
[25] = system: NCI-H322M; test: Growth inhibition of the NCI-H322M non-small cell lung cancer cell line for 2-day in vitro assay.; type: functional; conditions: Homo sapiens, 48 h
[26] = system: OVCAR-8; test: Growth inhibition of the OVCAR-8 Ovarian cancer cell line for 2-day in vitro assay.; type: functional; conditions: Homo sapiens, OVCAR-8, 48 h
[27] = system: OVCAR-4; test: Growth inhibition of the OVCAR-4 Ovarian cancer cell line for 2-day in vitro assay.; type: functional; conditions: Homo sapiens, OVCAR-4, 48 h
[28] = system: NCI-H460; test: Growth inhibition of the NCI-H460 non-small cell lung cancer cell line for 2-day in vitro assay.; type: functional; conditions: Homo sapiens, NCI-H460, 48 h
[29] = system: NCI-H23; test: Growth inhibition of the NCI-H23 non-small cell lung cancer cell line for 2-day in vitro assay.; type: functional; conditions: Homo sapiens, NCI-H23, 48 h
[30] = system: OVCAR-5; test: Growth inhibition of the OVCAR-5 Ovarian cancer cell line for 2-day in vitro assay.; type: functional; conditions: Homo sapiens, OVCAR-5, 48 h
[31] = system: PC-3; test: Growth inhibition of the PC-3 Prostate cancer cell line for 2-day in vitro assay.; type: functional; conditions: Homo sapiens, PC-3, 48 h
[32] = system: RXF 393; test: Growth inhibition of the RXF-393 Renal cancer cell line for 2-day in vitro assay.; type: functional; conditions: Homo sapiens, RXF 393, 48 h
[33] = system: SF-268; test: Growth inhibition of the SF-268 CNS cancer cell line for 2-day in vitro assay.; type: functional; conditions: Homo sapiens, SF-268, 48 h
[34] = system: SK-MEL-2; test: Growth inhibition of the SK-MEL-2 Melanoma cancer cell line for 2-day in vitro assay.; type: functional; conditions: Homo sapiens, SK-MEL-2, 48 h
[35] = system: SW-620; test: Growth inhibition of the SW-620 colon cancer cell line for 2-day in vitro assay.; type: functional; conditions: Homo sapiens, SW-620, 48 h
[36] = system: SN12C; test: Growth inhibition of the SN12C Renal cancer cell line for 2-day in vitro assay.; type: functional; conditions: Homo sapiens, 48 h
[37] = system: SNB-19; test: Growth inhibition of the SNB19 CNS cancer cell line for 2-day in vitro assay.; type: functional; conditions: Homo sapiens, SNB-19, 48 h
[38] = system: SF-295; test: Growth inhibition of the SF-295 CNS cancer cell line for 2-day in vitro assay.; type: functional; conditions: Homo sapiens, SF-295, 48 h
[39] = system: SR; test: Growth inhibition of the SR leukemia cell line for 2-day in vitro assay.; type: functional; conditions: Homo sapiens, 48 h
[40] = system: SK-MEL-5; test: Growth inhibition of the SK-MEL-5 Melanoma cancer cell line for 2-day in vitro assay.; type: functional; conditions: Homo sapiens, SK-MEL-5, 48 h
[41] = system: SNB-75; test: Growth inhibition of the SNB-75 CNS cancer cell line for 2-day in vitro assay.; type: functional; conditions: Homo sapiens, SNB-75, 48 h
[42] = system: SK-MEL-28; test: Growth inhibition of the SK-MEL-28 Melanoma cancer cell line for 2-day in vitro assay.; type: functional; conditions: Homo sapiens, SK-MEL-28, 48 h
[43] = system: TK-10; test: Growth inhibition of the TK-10 Renal cancer cell line for 2-day in vitro assay.; type: functional; conditions: Homo sapiens, TK-10, 48 h
[44] = system: T47D; test: Growth inhibition of the T-47D Breast cancer cell line for 2-day in vitro assay.; type: functional; conditions: Homo sapiens, 48 h
[45] = system: UO-31; test: Growth inhibition of the UO-31 Renal cancer cell line for 2-day in vitro assay.; type: functional; conditions: Homo sapiens, UO-31, 48 h
[46] = system: UACC-257; test: Growth inhibition of the UACC-257 Melanoma cancer cell line for 2-day in vitro assay.; type: functional; conditions: Homo sapiens, UACC-257, 48 h
[47] = system: U-251; test: Growth inhibition of the U251 CNS cancer cell line for 2-day in vitro assay.; type: functional; conditions: Homo sapiens, U-251, 48 h
[48] = system: UACC-62; test: Growth inhibition of the UACC-62 Melanoma cancer cell line for 2-day in vitro assay.; type: functional; conditions: Homo sapiens, UACC-62, 48 h
[49] = system: NCI/ADR-RES; test: Growth inhibition of the NCI/ADR-RES Breast cancer cell line for 2-day in vitro assay.; type: functional; conditions: Homo sapiens, 48 h
[50] = system: SK-OV-3; test: Growth inhibition of the SK-OV-3 Ovarian cancer cell line for 2-day in vitro assay.; type: functional; conditions: Homo sapiens, SK-OV-3, 48 h
[51] = system: HT-29; test: Growth inhibition of the HT-29 colon cancer cell line for 2-day in vitro assay.; type: functional; conditions: Homo sapiens, HT-29, 48 h
[52] = system: MDA-MB-231; test: Growth inhibition of the […] Breast cancer cell line for 2-day in vitro assay.; type: functional; conditions: Homo sapiens, MDA-MB-231, 48 h
[53] = system: MCF7; test: Growth inhibition of the MCF-7 Breast cancer cell line for 2-day in vitro assay.; type: functional; conditions: Homo sapiens, MCF7, 48 h
[54] = system: MOLT-4; test: Growth inhibition of the MOLT-4 leukemia cell line for 2-day in vitro assay.; type: functional; conditions: Homo sapiens, MOLT-4, 48 h
[55] = system: BT-549; test: Growth inhibition of the BT-549 Breast cancer cell line for 2-day in vitro assay.; type: functional; conditions: Homo sapiens, BT-549, 48 h

Compound: Cc1cc(-c2nc3ccc(O)cc3s2)ccc1N
- GI50 [1]: 29.5 µM
- GI50 [2]: 41.7 µM
- GI50 [3]: 34.7 µM
- GI50 [4]: 53.7 µM
- GI50 [5]: 0.794 µM
- GI50 [6]: > 100 µM
- GI50 [7]: 33.9 µM
- GI50 [8]: 4.07 µM
- GI50 [9]: > 100 µM
- GI50 [10]: 30.9 µM
- GI50 [11]: 43.7 µM
- GI50 [12]: > 100 µM
- GI50 [13]: > 100 µM
- GI50 [14]: 95.5 µM
- GI50 [15]: 36.3 µM
- GI50 [16]: 57.5 µM
- GI50 [17]: 33.1 µM
- GI50 [18]: > 100 µM
- GI50 [19]: 89.1 µM
- IC50 [20]: < 0.001 µM
- GI50 [21]: 83.2 µM
- GI50 [22]: 38.9 µM
- GI50 [23]: 30.2 µM
- GI50 [24]: 60.3 µM
- GI50 [25]: 39.8 µM
- GI50 [26]: > 100 µM
- GI50 [27]: 37.2 µM
- GI50 [28]: 38.9 µM
- GI50 [29]: 12.6 µM
- GI50 [30]: 83.2 µM
- GI50 [31]: 50.1 µM
- GI50 [32]: 30.2 µM
- GI50 [33]: 35.5 µM
- GI50 [34]: > 100 µM
- GI50 [35]: 66.1 µM
- GI50 [36]: 38.9 µM
- GI50 [37]: 45.7 µM
- GI50 [38]: 31.6 µM
- GI50 [39]: 21.9 µM
- GI50 [40]: 52.5 µM
- GI50 [41]: 15.8 µM
- GI50 [42]: 64.6 µM
- GI50 [43]: 77.6 µM
- GI50 [44]: 22.4 µM
- GI50 [45]: 21.4 µM
- GI50 [46]: > 100 µM
- GI50 [47]: 31.6 µM
- GI50 [48]: 57.5 µM
- GI50 [49]: 91.2 µM
- GI50 [50]: 37.2 µM
- GI50 [51]: 37.2 µM
- GI50 [52]: 44.7 µM
- GI50 [53]: 56.2 µM
- GI50 [54]: 26.9 µM
- GI50 [55]: 14.1 µM
